Measurements as given in ChEMBL document CHEMBL3132785, “Design, synthesis and evaluation of N6-substituted 2-aminoadenosine-5-N-methylcarboxamides as A3 adenosine receptor agonists” (Medchemcomm, 2014).

Columns and labels:
[1] = target: Adenosine receptors; A1 & A3 (Homo sapiens) (UniProt P30542+P0DMS8); assay: Selectivity ratio; ratio of pEC50 for human adenosine A1 receptor to pEC50 for human adenosine A3 receptor
Adenosine receptor A2a = Adenosine receptor A2a (Homo sapiens, UniProt P29274); assay: Agonist activity at human adenosine A2A receptor expressed in FlpIn-CHO cells assessed as inhibition of forskolin-induced cAMP accumulation after 30 mins by fluorescence assay; type: functional, cell-based
Adenosine receptor A2a, sequence (P29274 whole entry): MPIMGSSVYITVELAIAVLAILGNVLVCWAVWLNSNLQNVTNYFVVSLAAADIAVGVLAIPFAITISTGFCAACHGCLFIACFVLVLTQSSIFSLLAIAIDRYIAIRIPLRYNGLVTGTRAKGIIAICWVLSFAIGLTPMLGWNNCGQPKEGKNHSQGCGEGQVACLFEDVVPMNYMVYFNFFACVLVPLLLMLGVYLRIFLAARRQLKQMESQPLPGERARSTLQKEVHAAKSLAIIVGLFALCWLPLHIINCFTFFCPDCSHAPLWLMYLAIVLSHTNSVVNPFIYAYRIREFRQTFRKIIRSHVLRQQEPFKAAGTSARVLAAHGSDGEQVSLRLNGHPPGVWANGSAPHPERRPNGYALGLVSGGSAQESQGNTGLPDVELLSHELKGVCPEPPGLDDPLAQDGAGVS

Adenosine receptor A3 = target: T1, Adenosine receptor A3 (Homo sapiens, UniProt P0DMS8); assay: Agonist activity at human adenosine A3 receptor expressed in FlpIn-CHO cells assessed as inhibition of forskolin-induced cAMP accumulation after 30 mins by fluorescence assay; type: functional, cell-based
T1 sequence (P0DMS8 whole entry): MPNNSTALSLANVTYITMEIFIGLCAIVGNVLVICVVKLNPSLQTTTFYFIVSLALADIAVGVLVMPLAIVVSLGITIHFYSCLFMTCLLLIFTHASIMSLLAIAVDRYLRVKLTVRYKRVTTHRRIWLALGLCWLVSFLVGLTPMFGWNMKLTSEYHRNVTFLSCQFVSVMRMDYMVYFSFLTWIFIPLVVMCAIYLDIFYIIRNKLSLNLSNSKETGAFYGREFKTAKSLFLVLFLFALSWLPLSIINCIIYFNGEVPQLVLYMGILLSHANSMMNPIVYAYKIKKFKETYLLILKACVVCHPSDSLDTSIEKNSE

Homo sapiens [2] = organism: Homo sapiens; assay: Selectivity ratio; ratio of pEC50 for human adenosine A2A receptor to pEC50 for human adenosine A3 receptor
Adenosine receptor A2b = target: T2, Adenosine receptor A2b (Homo sapiens, UniProt P29275); assay: Agonist activity at human adenosine A2B receptor expressed in FlpIn-CHO cells assessed as inhibition of forskolin-induced cAMP accumulation after 30 mins by fluorescence assay; type: functional, cell-based
T2 sequence (P29275 whole entry): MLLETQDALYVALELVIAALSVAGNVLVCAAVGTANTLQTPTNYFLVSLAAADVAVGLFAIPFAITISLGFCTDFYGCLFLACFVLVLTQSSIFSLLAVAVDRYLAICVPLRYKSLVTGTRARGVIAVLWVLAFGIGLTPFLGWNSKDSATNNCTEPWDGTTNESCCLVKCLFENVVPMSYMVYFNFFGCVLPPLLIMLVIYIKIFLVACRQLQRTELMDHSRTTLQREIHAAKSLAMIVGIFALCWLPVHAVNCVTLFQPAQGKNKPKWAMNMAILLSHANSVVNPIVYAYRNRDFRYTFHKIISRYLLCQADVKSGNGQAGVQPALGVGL

Adenosine receptor A1 = target: T3, Adenosine receptor A1 (Homo sapiens, UniProt P30542); assay: Agonist activity at human adenosine A1 receptor expressed in FlpIn-CHO cells assessed as inhibition of forskolin-induced cAMP accumulation after 30 mins by fluorescence assay; type: functional, cell-based
T3 sequence (P30542 whole entry): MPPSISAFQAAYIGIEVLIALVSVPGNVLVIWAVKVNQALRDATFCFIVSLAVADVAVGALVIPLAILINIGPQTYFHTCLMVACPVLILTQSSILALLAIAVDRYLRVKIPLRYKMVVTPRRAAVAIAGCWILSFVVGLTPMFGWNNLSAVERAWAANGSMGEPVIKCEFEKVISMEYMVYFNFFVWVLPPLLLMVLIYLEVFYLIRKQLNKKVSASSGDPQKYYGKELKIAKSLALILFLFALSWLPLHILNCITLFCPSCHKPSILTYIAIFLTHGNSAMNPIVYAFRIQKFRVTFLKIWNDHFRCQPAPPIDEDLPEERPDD

Homo sapiens [3] = organism: Homo sapiens; assay: Selectivity ratio; ratio of pEC50 for human adenosine A2B receptor to pEC50 for human adenosine A3 receptor

Selectivity ratio [1] | EC50 (Adenosine receptor A2a) [nM] | EC50 (Adenosine receptor A3) [nM] | Selectivity ratio (Homo sapiens [2]) | EC50 (Adenosine receptor A2b) [nM] | EC50 (Adenosine receptor A1) [nM] | Selectivity ratio (Homo sapiens [3]) | Structure (SMILES)
20 | > 10000 | 39.8 | > 251 | 1260 | 794 | 32 | CCCCNc1nc(N)nc2c1ncn2[C@@H]1O[C@H](C(=O)NC)[C@@H](O)[C@H]1O
> 4 | > 10000 | 2510 | > 4 | > 10000 | > 10000 | > 4 | CCN(CC)c1nc(NC2CCCC2)c2ncn([C@@H]3O[C@H](C(=O)NC)[C@@H](O)[C@H]3O)c2n1
> 16 | 5010 | 631 | 8 | > 10000 | > 10000 | > 16 | CNC(=O)[C@H]1O[C@@H](n2cnc3c(NC4CCCC4)nc(N(C)C)nc32)[C@H](O)[C@@H]1O
32 | > 10000 | 10 | > 1000 | 5010 | 316 | 501 | CCCNc1nc(N)nc2c1ncn2[C@@H]1O[C@H](C(=O)NC)[C@@H](O)[C@H]1O
200 | 3160 | 31.6 | 100 | 126 | 6310 | 4 | CNC(=O)[C@H]1O[C@@H](n2cnc3c(NCc4ccccc4)nc(N)nc32)[C@H](O)[C@@H]1O
 |  |  |  | 31.6 |  |  | CNC(=O)[C@H]1O[C@@H](n2cnc3c(NCc4cccc(I)c4)ncnc32)[C@H](O)[C@@H]1O [IB-MECA]
1 | 794 | 126 | 6 | 2510 | 63.1 | 20 | CNC(=O)[C@H]1O[C@@H](n2cnc3c(NC4CCCCC4)nc(N)nc32)[C@H](O)[C@@H]1O
13 | 2510 | 5.01 | 501 | 200 | 63.1 | 40 | CNC(=O)[C@H]1O[C@@H](n2cnc3c(NC4CCC4)nc(N)nc32)[C@H](O)[C@@H]1O
8 | 501 | 39.8 | 8 | > 10000 | 501 | > 251 | CCNc1nc(NC2CCCC2)c2ncn([C@@H]3O[C@H](C(=O)NC)[C@@H](O)[C@H]3O)c2n1
251 | > 10000 | 10 | > 1000 | 1580 | 2510 | 158 | CCNc1nc(N)nc2c1ncn2[C@@H]1O[C@H](C(=O)NC)[C@@H](O)[C@H]1O
794 | > 10000 | 5.01 | > 2000 | 1580 | 3980 | 316 | CNC(=O)[C@H]1O[C@@H](n2cnc3c(NC)nc(N)nc32)[C@H](O)[C@@H]1O
501 | 398 | 0.631 | 631 | 398 | 316 | 631 | CNC(=O)[C@H]1O[C@@H](n2cnc3c(NCc4cccc(Cl)c4)nc(N)nc32)[C@H](O)[C@@H]1O
79 | 79.4 | 3.98 | 20 | 158 | 316 | 40 | CNC(=O)[C@H]1O[C@@H](n2cnc3c(NCCc4ccccc4)nc(N)nc32)[C@H](O)[C@@H]1O
4 | 3980 | 100 | 40 | > 10000 | 398 | > 100 | CNC(=O)[C@H]1O[C@@H](n2cnc3c(NC4CCCC4)nc(NC)nc32)[C@H](O)[C@@H]1O
158 | 251 | 1.58 | 158 | 158 | 251 | 100 | CNC(=O)[C@H]1O[C@@H](n2cnc3c(NCc4cccc(I)c4)nc(N)nc32)[C@H](O)[C@@H]1O
3 | 1260 | 15.8 | 79 | 794 | 39.8 | 50 | CNC(=O)[C@H]1O[C@@H](n2cnc3c(NC4CCCC4)nc(N)nc32)[C@H](O)[C@@H]1O
79 | 794 | 5.01 | 158 | 200 | 398 | 40 | CNC(=O)[C@H]1O[C@@H](n2cnc3c(NCC(c4ccccc4)c4ccccc4)nc(N)nc32)[C@H](O)[C@@H]1O
